# Data from patent US8741965B2, “Method of administering a pheromone composition to an animal to modify the animals behavior over an extended period of time” (Sergeant's Pet Care Products, Inc., priority 2011, dated 2014).
# “Also recorded” adds a separate entry of the source.
# Legend:
# dogs [1] = assay: Overall conclusions and meta-analysis across Studies 1-4; assay type: in vivo, dog
# Description: Three delivery methods were examined (collar, spray, and room diffuser) and conclusions may be drawn about their efficacy. First, the pheromones were similar in efficacy when applied as a collar or spray. When used as a room diffuser, the pheromones/INTEROMONE® compositions had fewer significant effects compared with when they were delivered in collar or spray form. […] Meta-analyses were performed across studies to identify potential over-arching effects (FIGS. 18A and B). […] The reaction of most dogs to handling or startle was to go lay down; but the dogs exposed to rabbit INTEROMONE®were more likely to sit. Other than this general effect, each other finding must be considered within the context of the form of delivery (spray, collar or room diffuser) and the response of individual dog.
# dogs [2] = assay: Spray to face of dogs, heart rate for two hours (Example 10); assay type: in vivo, dog
# Description: A spray composition comprising rabbit pheromone as an INTEROMONE® was prepared in accordance with Example 9. Four dogs were fitted with cloth jackets that contained electrodes to measure their heart rate. One dog was sprayed with the 2-methylbut-2-enal composition, one dog was sprayed with a placebo, and two dogs were sprayed with pheromone-based products currently on the market for purposes of modifying behavior. […] Data were collected for two hours following application of the spray to the facial/snout region of the four dogs. The control period was indicated as time zero (“0”) on FIG. 1 and FIG. 2.
# adult anxious dogs = assay: Collars, heart rate and behavior in adult anxious dogs, Latin square, foghorn startle (Example 6); assay type: in vivo, dog
# Description: The objective of this study was to assess efficacy of pheromones/INTEROMONE® compositions to modulate heart rate and behavior in adult anxious dogs (trembling, cowering, shy). The dogs (8.1±0.18 kg; estimated 5-12 yr intact males) were obtained from a local research facility. Body weights and feed intake were recorded. Each dog was housed in a separately ventilated room with a minimum of 12 m^2 of floor space. Heart rate (HR) and surface temperature was measured using a telemetry system (Data Science International, St. Paul, Minn.). Behavior was recorded on a DVR and later reviewed by a trained individual. A scan sample was used with a recording interval of 5 min over 24 hours.
# The dogs were treated with four different treatments on different days: Placebo collar (no Pheromone/INTEROMONE®), Pheromone only collar (Serg), Rabbit pheromone as INTEROMONE® collar (RP) (prepared in accordance with Example 1), and INTEROMONE® plus Pheromone collar (Serg+RP) (prepared in accordance with Example 3). At the end of 24 hours with a given collar, each dog was startled with a 110 db foghorn placed 12 cm from the dog's head while behavior and heart rate were recorded. Each dog received each treatment in a Latin square design with repeated measures over time. This model allowed evaluation of effects of treatment, dog, treatment by dog, time, treatment by time and dog by time.
# cat = assay: Collar containing rabbit pheromone worn by cats (Example 7); assay type: in vivo; conditions: collar worn by a cat
# Excerpt: A collar containing 2-methylbut-2-enal can be prepared in accordance with Examples 1 or 2.
# nervous dogs = assay: Example 11 Study 1: baseline behavior and heart rate after collar or spray; assay type: in vivo, dog; conditions: for pacing-walking behavior of individual dogs: Study 1, FIG. 3A; for sitting behavior of individual dogs: FIG. 3C; for heart rate of individual dogs: Study 1, dogs 1-4, FIG. 6; for overall dog heart rate and its decline: dogs 1-4, two hours after collar or spray, FIGS. 4, 5
# Excerpt: Eight dogs were obtained from a local contract research facility and assessment was made as to general dog health, behavior and heart rate. The dogs were estimated to be 2 to 7 years of age, mixed breed, and weighed averagely 8.1±0.18 kg at the start of the studies. […] Upon arrival each dog was bathed using shampoo containing flea and tick medicine (Hartz Mountain Corp. Secaucus, N.J. USA), and their body hair was shaved. Each dog was kept in a single room, which had 100% fresh air intake and exhaust. The dogs were fed twice (am and pm) per day ad libitum. At that time, the room was cleaned and the dogs obtained extra exercise. Water was available ad libitum.
# Dog behavior was captured on video media at a sampling rate of 30 frames per second. Video records were reviewed in real time (with tape playing 30 frames per second). A scan sampling method was used to record dog behaviors each minute or each 5 minutes depending on the particular study. If the sample period was 120 minutes with four periods (0-30=0, 30-60=30, 60-90=60, and 90-120-90 min), then a scan sample was recorded each 1 minute. If the sample period was 24 hours, then the scan sample was collected each 5 minutes and summarized each hour. For example, pacing is when a dog walks in a stereotyped manner for minutes to hours. Because it was not easy to distinguish walking from pacing, the behaviors were merged. In addition, the video records could not clearly distinguish lying down and awake versus lying down and sleeping, therefore there was no separate description for these two behaviors.
# Heart rate during the studies was measured by the use of a non-invasive telemetry system (Data Science International, St. Paul, Minn., USA). Leads were placed in contact with the dogs' shaved skin. Sensors measured heart rate, surface temperature and general activity. Data were transmitted to a receiving computer in another room. The sampling rate varied with the study, but was 5 seconds for the first two hours after treatments and then each 1 minute for 24 hours (depending on the particular study). For surface temperature measurements of the dog subjects, a thermistor was located against the skin of each dog. It recorded the surface temperature to the neared 0.1° C. on the same interval as the heart rate data.
# Behavior and physiological data (heart rate and surface temperature) were analyzed by least squares analysis of variance using SAS (2011) software and the general linear models procedures. The experimental design of each study was a specialized randomized complete block in a Latin square design with data collected as a split plot over time. Dogs represented the blocks. Each dog received each treatment randomly in successive days or weeks. The statistical model included effects of treatment (TRT), dog, dog by treatment (TRT*DOG; error term used to assess treatment and dog effects), time (HR), treatment by time (TRT*HR), and residual error (SE; used to test remaining effects). Behavior data were collected and analyzed as counts per time period, but for clarity of presentation, the data are reported as percentage of time dogs engaged in each behavior.
# In Study 1, baseline heart rate data were collected while the dogs each experienced 4 different treatments—a placebo collar (PLACEBO), Pheromone “H” Collar (SERG), Dog Appeasing Pheromone in collar form (DAPC) and the Rabbit Pheromone (RP; 1 μg/mL) formulated into a spray in accordance with Example 8. Each of the four treatments was given to each dog in a random order, with the treatment changing each week. Baseline heart rate and behavior data were collected for 30 minutes before each treatment application (see Table 8) and 2 hours after (see Table 9) (expressed in % of time).
# [3] = 120 minutes after treatment, no startle, SERG, DAPC collars, RP spray 1 μg/mL
smiles,measurement,setting,value
"C/C=C(\C)C=O [RP, 2-methylbut-2-enal]",behaviors in meta-analysis across studies,"dogs [1]; Studies 1, 2 and 4, FIG. 18",Only dog sitting behavior was increased
same,overall effect on dog behavior and physiology,"dogs [1]; collar, spray and room diffuser, all four studies",most consistent or largest effect on dog behavior and physiology
same,reduction of average dog heart rate,dogs [2]; FIG. 1,24.5 beats/min per hour
same,heart rate reduction over the two hour period,dogs [2]; compared to marketed products and placebo,30%
same,HR after startle,"adult anxious dogs; collar 24 h, 110 db foghorn, placebo 157.8±7.2, P<0.01",124.5±7.2 bpm
same,time pacing,"adult anxious dogs; collar, placebo 3.8±0.02, P<0.05",3.0±0.2%
same,time lying down,"adult anxious dogs; collar, placebo 63.2±4.8, P=0.01",87.4±5.4 % of time
same,effect on dog HR (summary),adult anxious dogs; collars,lowered HR
same,change in cat behavior,cat,significant change in behavior towards a calmer demeanor
same,sitting over time versus other treatments,"nervous dogs; 2-hour period after collar or spray, FIG. 3D","In the 60 minute period after treatment with rabbit pheromone, dogs also sat more than with the other treatments"
same,average time dogs sat,"nervous dogs; 30 minute period after spray, FIG. 3D",~50 % of the time
same,Defecate,nervous dogs; [3],0 % of time
same,Drink,nervous dogs; [3],0.0 % of time
same,Eat,nervous dogs; [3],0.0 % of time
same,Lick self,nervous dogs; [3],0 % of time
same,Lying down,nervous dogs; [3],58.5 % of time
same,Pace-walk,nervous dogs; [3],7.6 % of time
same,Sitting,nervous dogs; [3],93.1 % of time
same,Standing,nervous dogs; [3],3.1 % of time
same,Urinate,nervous dogs; [3],0 % of time
same,pacing-walking behavior of individual dogs,nervous dogs; listed as RP spray,dog 7 showed reduced pacing-walking; also recorded: increased pacing-walking of dog 1 compared with the DAP collar
same,pacing-walking behavior of individual dogs,nervous dogs; listed as rabbit INTEROMONE® spray,"Dog 3 increased pacing with Serg, but reduced its pacing with DAP collar and rabbit INTEROMONE® spray; also recorded: Dog 7's pacing was reduced by DAP collar and reduced even more by rabbit INTEROMONE® spray"
same,lying down behavior / activity of individual dogs,"nervous dogs; Study 1, compared with Placebo, FIG. 3B","For dog 2, both SERG and RP reduced lying down behavior significantly; also recorded: For dog 8, only RP increased dog activity and reduced lying down"
same,sitting behavior of individual dogs,"nervous dogs; Study 1, compared with Placebo, listed as RP spray",increased dog sitting in dogs 2 and 8
same,sitting behavior of individual dogs,"nervous dogs; Study 1, compared with Placebo, listed as rabbit pheromone",dogs 2 and 8 showed increased sitting
same,heart rate of individual dogs,nervous dogs,decreased the heart rates of dogs 3 and 4 compared to other treatments
same,heart rate of individual dogs,nervous dogs; listed as Rabbit pheromone,decreased heart rate in dog 3
same,heart rate of individual dogs,nervous dogs; listed as rabbit pheromone spray,Dog 3 had decreased heart rate
same,speed of calming,"nervous dogs; Study 1, spray versus collar",calms dogs faster than treatment with DAP collar
same,heart rate decline (slope of regression equation),"nervous dogs; dogs 1-4, FIG. 5, placebo 6 bpm/h",24.5 bpm/h
same,overall dog heart rate and its decline,nervous dogs,had the greatest effect in decreasing dog heart rate
same,overall dog heart rate and its decline,nervous dogs; listed as rabbit pheromone,most significantly (P<0.05) reduced overall dog heart rate; also recorded: greater decline in heart rate than Placebo
